From paper PMC12652692, “Synthesis and In Vitro Anticancer Evaluation of Novel Phosphonium Derivatives of Chrysin” (International Journal of Molecular Sciences, 2025)

Legend:
Experiment in all cases: NCI60 one-dose screen
[1] = test system: T-47D; format: cell-based, human; conditions: 10 μM
Description: (§1) The screening results are presented in the Supplementary Materials (Table S1), where the cytotoxicity was determined for the 10 µM concentration. […] The negative numbers indicate significant decreases in the cell number. […] Compared to the reference chrysin (2), all phosphonium hybrids (3a–h) had significant antiproliferative activities. […] At the same time, it should be noted that more than 60% average reduction was also obtained in the case of the other examined conjugates (3a–h).
(§2) A detailed description of the NCI screening procedures, including the one-dose and five-dose tests, can be found in the Supplementary Materials, on the website of NCI [39], and in our previous work.
(§3) A detailed description of the NCI screening procedures can also be found on the website of NCI [39], and in our […]
(§4) All candidates were examined at first at a single high dose (10 μM) in the full NCI60 cell panel. The value reported for the one-dose test is growth relative to the no-drug control and relative to the time zero number of cells. This made possible the disclosure of both growth inhibition (numbers between 0 and 100) and lethality (numbers less than 0). For example, a value of 100 means no growth inhibition. A value of 20 would mean 80% growth inhibition. A value of 0 means no net growth over the course of the analysis. A value of −20 would mean 20% lethality. A value of −100 means all cells are dead. […]
(§5) concentration levels. The human tumor cell lines of the cancer screening panel were grown in RPMI 1640 medium containing 5% fetal bovine serum and 2 mM l-glutamine. Characteristically, cells were injected in 96-well microtiter plates in 0.1 mL at plating densities ranging from 5000 to 40,000 cells/well, depending on the doubling time of individual cell lines. After cell inoculation, the microtiter plates were incubated at 37 °C, 5% carbon dioxide, 95% air, and 100% relative humidity for 24 hours before the addition of tested compounds. After 24 hours, 2 plates of each cell line were fixed in situ with Cl3COOH (TCA), to represent a measurement of the cell population for each cell line at the time of drug addition (tz). Tested compounds were solubilized in DMSO at 400-fold the desired final maximum test concentration and stored frozen before application. In the course of the drug addition, an aliquot of frozen concentrate was thawed and diluted to twice the desired final maximum test concentration with a complete medium containing 50 μg mL−1 gentamicin. Additional four, 10-fold or ½ log serial dilutions were produced to furnish a total of five drug concentrations plus control. Aliquots of 0.1 mL of these different drug dilutions were added to the appropriate microtiter wells already containing 0.1 mL of medium, resulting in the required final drug concentrations.
(§6) Following drug addition, the plates were incubated at 37 °C, 5% carbon dioxide, 95% air, and 100% relative humidity for an additional 48 hours. For adherent cells, the test was finished by the addition of cold Cl3COOH. Cells were fixed in situ by the addition of 50 μL of cold 50% (w/v) Cl3COOH, and incubated at 4 °C for 1 hour. The supernatant was discarded, and the plates were washed with H2O (5×) and dried in air. Sulforhodamine B (SRB) solution (0.1 mL) at 0.4% (w/v) in 1% CH3COOH was added to each well, and plates were incubated at RT for 10 min. After staining, the unbound dye was removed by washing five times with 1% CH3COOH, and the plates were dried in the air. The bound stain is afterward solubilized with a 10 mM trizma base, and the absorbance is read on an automated plate reader at λ = 515 nm. Utilizing the seven absorbance measurements [time zero (tz), control growth (c), and test growth in the presence of the drug at the five concentration levels (ti)], the percentage growth was determined at each of the drug concentration levels. Growth inhibition (%) was calculated as:
(§7) [(ti − tz)/(c − tz)] × 100, for concentrations where ti ≥ tz (1) […]

[2] = test system: SR; format: cell-based, human; conditions: 10 μM
Description: as §1, §2, §3, §4, §5, §6, §7

[3] = test system: PC-3; format: cell-based, human; conditions: PC-3, 10 μM
Description: as §1, §2, §3, §4, §5, §6, §7

[4] = test system: UACC-62; format: cell-based, human; conditions: UACC-62, 10 μM
Description: as §1, §2, §3, §4, §5, §6, §7

[5] = test system: A498; format: cell-based; conditions: Homo sapiens; A498, 10 μM; read-out: Growth percent
Description: as §1, §2, §3, §4, §5, §6, §7

[6] = test system: NCI-H322M; format: cell-based; conditions: Homo sapiens, read-out: Growth percent
Description: as §1, §2, §3, §4, §5, §6, §7

[7] = test system: HS 578T; format: cell-based; conditions: Homo sapiens, read-out: Growth percent
Description: as §1, §2, §3, §4, §5, §6, §7

[8] = test system: SK-MEL-2; format: cell-based; conditions: Homo sapiens; SK-MEL-2, 10 μM; read-out: Growth percent
Description: as §1, §2, §3, §4, §5, §6, §7

[9] = test system: NCI-H23; format: cell-based; conditions: Homo sapiens; NCI-H23, 10 μM; read-out: Growth percent
Description: as §1, §2, §3, §4, §5, §6, §7

[10] = test system: TK-10; format: cell-based; conditions: Homo sapiens; TK-10, 10 μM; read-out: Growth percent
Description: as §1, §2, §3, §4, §5, §6, §7

[11] = test system: NCI/ADR-RES; format: cell-based; conditions: Homo sapiens, read-out: Growth percent
Description: as §1, §2, §3, §4, §5, §6, §7

[12] = test system: OVCAR-4; format: cell-based; conditions: Homo sapiens; OVCAR-4, 10 μM; read-out: Growth percent
Description: as §1, §2, §3, §4, §5, §6, §7

[13] = test system: UACC-257; format: cell-based; conditions: Homo sapiens; UACC-257, 10 μM; read-out: Growth percent
Description: as §1, §2, §3, §4, §5, §6, §7

[14] = test system: SK-MEL-28; format: cell-based; conditions: Homo sapiens; SK-MEL-28, 10 μM; read-out: Growth percent
Description: as §1, §2, §3, §4, §5, §6, §7

[15] = test system: SK-OV-3; format: cell-based; conditions: Homo sapiens; SK-OV-3, 10 μM; read-out: Growth percent
Description: as §1, §2, §3, §4, §5, §6, §7

[16] = test system: HT29; format: cell-based; conditions: Homo sapiens, HT-29; HT29, 10 μM; read-out: Growth percent
Description: as §1, §2, §3, §4, §5, §6, §7

[17] = test system: A549/ATCC; format: cell-based; conditions: Homo sapiens, read-out: Growth percent
Description: as §1, §2, §3, §4, §5, §6, §7

[18] = test system: SF-268; format: cell-based; conditions: Homo sapiens; SF-268, 10 μM; read-out: Growth percent
Description: as §1, §2, §3, §4, §5, §6, §7

[19] = test system: SW-620; format: cell-based; conditions: Homo sapiens; SW-620, 10 μM; read-out: Growth percent
Description: as §1, §2, §3, §4, §5, §6, §7

[20] = test system: BT-549; format: cell-based; conditions: Homo sapiens; BT-549, 10 μM; read-out: Growth percent
Description: as §1, §2, §3, §4, §5, §6, §7

[21] = test system: RXF 393; format: cell-based; conditions: Homo sapiens; RXF 393, 10 μM; read-out: Growth percent
Description: as §1, §2, §3, §4, §5, §6, §7

[22] = test system: HOP-92; format: cell-based, human; conditions: HOP-92, 10 μM
Description: as §1, §2, §3, §4, §5, §6, §7

Row | Compound | Growth percent [1] | Growth percent [3] | Growth percent [4] | activity at 10 µM [5] | activity at 10 µM [6] | activity at 10 µM [7] | activity at 10 µM [8] | activity at 10 µM [9] | activity at 10 µM [10] | activity at 10 µM [11] | activity at 10 µM [12] | activity at 10 µM [13] | activity at 10 µM [14] | activity at 10 µM [15] | activity at 10 µM [16] | activity at 10 µM [17] | activity at 10 µM [18] | activity at 10 µM [19] | activity at 10 µM [20] | activity at 10 µM [21] | other results
1 | O=c1cc(-c2ccccc2)oc2cc(OCCCC[P+](c3ccccc3)(c3ccccc3)c3ccccc3)cc(O)c12 [3a] | −62.52% | −87.34% | −59.51% | -83.3% | -100% | -35.2% | -94.1% | -93% | -81.8% | -68.3% | -69.1% | -91% | -98.5% | -83.4% | -65% | -56% | -59% | -81.7% | -83% |  | Growth percent [2]: −39.83%
2 | Cc1ccc([P+](CCCCOc2cc(O)c3c(=O)cc(-c4ccccc4)oc3c2)(c2ccc(C)cc2)c2ccc(C)cc2)cc1 [3b] | −52.52% |  | −88.32% | -81.5% | -79.5% | -52.2% | -76.9% | -90.9% | -79.3% | -65.7% | -73.1% | -72.2% | -85.3% | -75.3% | -60.7% | -49.5% | -61.3% | -68.5% | -19% | -74.8% | Growth percent [2]: −36.14%
3 | COc1ccc([P+](CCCCOc2cc(O)c3c(=O)cc(-c4ccccc4)oc3c2)(c2ccc(OC)cc2)c2ccc(OC)cc2)cc1 [3c] |  | −82.70% |  | -83% | -45.1% | -62.7% | -88.6% | -77% | -87.1% | -13.2% | -74.3% | -94.7% | -44.5% | -77.7% | -82.8% | -91.2% | -38.3% | -34.8% | -82.6% | -74.4% | Growth percent [22]: −79.86%
4 | O=c1cc(-c2ccccc2)oc2cc(OCCCC[P+](c3ccc(F)cc3)(c3ccc(F)cc3)c3ccc(F)cc3)cc(O)c12 [3d] | −53.27% |  | −96.92% | -87.6% | -88.3% | -54.5% | -77.3% | -93% | -84.8% | 65% | -48.1% | -82.1% | -92% | -88.2% | -69.8% | -41.1% | -71.6% | -67.5% | -76% | -84% | Growth percent [2]: −36.14%
5 | O=c1cc(-c2ccccc2)oc2cc(OCCCC[P+](C3CCCCC3)(C3CCCCC3)C3CCCCC3)cc(O)c12 [3e] |  | −70.81% |  | -87.6% | -85.2% | -62.1% | -91.9% | -88.5% | -91.3% | -20.8% | -64.5% | -92.2% | -41.4% | -82.4% | -84.9% | -95.3% | -67.5% | -76.4% | -89.9% | -80% | Growth percent [22]: −75.86%
6 | COc1c(C)cc([P+](CCCCOc2cc(O)c3c(=O)cc(-c4ccccc4)oc3c2)(c2cc(C)c(OC)c(C)c2)c2cc(C)c(OC)c(C)c2)cc1C [3f] | −52.77% | −76.48% | −80.44% | -83.4% | -62.2% | -57.7% | -77.6% | -77.3% | -84.7% | -66.8% | -65.5% | -79.7% | -85.7% | -58.3% | -72.7% | -66.1% | -66.5% | -62.4% | -53.4% | -66.9% | Growth percent [22]: −68.75%; Growth percent [2]: 23.00%
7 | Cc1ccccc1[P+](CCCCOc1cc(O)c2c(=O)cc(-c3ccccc3)oc2c1)(c1ccccc1C)c1ccccc1C [3g] |  | −97.92% | −97.94% | -99.1% | -98.2% | -98.3% | -98.5% | -98.4% | -99.3% | -97.9% | -98.7% | -99.3% | -98.4% | -97.9% | -97.9% | -94.1% | -97.9% | -96.4% | -98.1% | -98.7% | Growth percent [22]: −98.85%
